Results: patent US20260014285A1, “POLYPEPTIDE COMPOUND, AND COMPLEX AND USE THEREOF” (HANGZHOU HEALTHYTIDE BIOTECHNOLOGY CO., LTD., priority 2022, published 2026)
Non-standard residues stand in square brackets, D forms with d. Residues, ends and D or L forms follow the SMILES beside them. ξ: configuration not given here. *: point of attachment. DOTA = O=C(O)CN1CCN(CC(=O)O)CCN(CC(=O)*)CCN(CC(=O)O)CC1; PEG4 = NCCOCCOCCOCCOCCC(=O)O; ξIle = CC[C@H](C)C(N)C(=O)O; AEEA = NCCOCCOCC(=O)O; AEA = NCCOCC(=O)O

Assays:
integrin α5β1 = integrin α5β1 (Homo sapiens, UniProt P05556+P08648); test: Target affinity test by surface plasmon resonance (SPR), integrin α5β1; assay type: binding; details: for affinity constant (KD) to integrin α5β1, in words: SPR; for Kd: SPR (Biacore T200), CM5 chip, 25° C., KD=Kd/Ka
integrin α5β1, sequence (P08648 42-995 limits assumed): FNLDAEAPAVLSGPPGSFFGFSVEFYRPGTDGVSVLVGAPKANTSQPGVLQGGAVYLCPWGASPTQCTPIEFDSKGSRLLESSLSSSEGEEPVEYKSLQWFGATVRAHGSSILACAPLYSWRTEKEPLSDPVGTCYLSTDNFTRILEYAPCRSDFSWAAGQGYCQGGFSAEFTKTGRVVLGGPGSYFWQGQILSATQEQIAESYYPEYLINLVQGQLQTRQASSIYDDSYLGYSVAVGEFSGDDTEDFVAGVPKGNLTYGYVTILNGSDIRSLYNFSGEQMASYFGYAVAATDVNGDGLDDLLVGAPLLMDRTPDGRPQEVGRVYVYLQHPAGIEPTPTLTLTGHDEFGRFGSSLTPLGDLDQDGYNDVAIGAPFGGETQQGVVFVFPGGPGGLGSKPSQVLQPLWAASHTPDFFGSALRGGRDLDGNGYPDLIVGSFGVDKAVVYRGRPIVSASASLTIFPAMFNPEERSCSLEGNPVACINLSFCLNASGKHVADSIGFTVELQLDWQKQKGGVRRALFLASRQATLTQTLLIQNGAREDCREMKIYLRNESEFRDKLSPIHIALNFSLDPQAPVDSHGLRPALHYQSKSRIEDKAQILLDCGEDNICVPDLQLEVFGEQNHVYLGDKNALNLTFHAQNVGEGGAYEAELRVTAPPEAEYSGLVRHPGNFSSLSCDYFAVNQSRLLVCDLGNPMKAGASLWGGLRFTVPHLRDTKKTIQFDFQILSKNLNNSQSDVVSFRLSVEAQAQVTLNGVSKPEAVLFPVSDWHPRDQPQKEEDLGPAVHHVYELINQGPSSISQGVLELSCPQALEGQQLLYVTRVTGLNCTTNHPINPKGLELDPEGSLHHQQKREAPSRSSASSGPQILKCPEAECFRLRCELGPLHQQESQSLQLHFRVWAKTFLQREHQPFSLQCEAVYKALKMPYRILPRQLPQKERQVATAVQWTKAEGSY
integrin α5β1, sequence (P05556 21-728 limits assumed): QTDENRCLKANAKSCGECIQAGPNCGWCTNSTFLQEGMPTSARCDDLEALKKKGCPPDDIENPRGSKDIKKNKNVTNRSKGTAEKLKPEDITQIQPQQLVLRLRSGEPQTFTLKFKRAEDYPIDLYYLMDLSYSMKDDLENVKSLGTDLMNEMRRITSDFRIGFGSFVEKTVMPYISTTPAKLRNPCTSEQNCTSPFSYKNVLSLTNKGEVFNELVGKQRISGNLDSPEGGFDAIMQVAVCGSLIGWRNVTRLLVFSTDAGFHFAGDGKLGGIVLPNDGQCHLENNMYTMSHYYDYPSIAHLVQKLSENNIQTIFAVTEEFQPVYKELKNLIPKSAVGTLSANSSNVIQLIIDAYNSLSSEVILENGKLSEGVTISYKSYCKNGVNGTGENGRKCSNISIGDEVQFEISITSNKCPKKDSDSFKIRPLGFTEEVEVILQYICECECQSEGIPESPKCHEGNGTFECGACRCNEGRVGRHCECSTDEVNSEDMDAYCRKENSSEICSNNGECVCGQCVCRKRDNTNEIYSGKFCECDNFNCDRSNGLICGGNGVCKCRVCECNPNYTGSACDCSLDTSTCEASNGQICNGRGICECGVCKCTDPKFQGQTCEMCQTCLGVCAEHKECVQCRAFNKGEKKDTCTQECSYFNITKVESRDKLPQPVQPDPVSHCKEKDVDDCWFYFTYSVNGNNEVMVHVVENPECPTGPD
Description: (§1) Surface plasmon resonance (SPR) technique was used to test the affinity of the compound in the examples to the target protein integrin α5β1. Specifically, the following operations were performed.
(§2) The affinity constants (KD) of the compounds to the target proteins integrin α5β1, αvβ3, and αvβ5 were calculated according to the formula of KD=Kd/Ka (the lower the value of KD, the higher the affinity of the compounds of the examples to the target protein integrin α5β1).

integrin αvβ3 = integrin αvβ3 (Homo sapiens, UniProt P05106+P06756); test: Target affinity test by surface plasmon resonance (SPR), integrin αvβ3; assay type: binding; details: for affinity constant (KD) to integrin αvβ3, in words: SPR; for Kd: SPR (Biacore T200), CM5 chip, 25° C., KD=Kd/Ka
integrin αvβ3, sequence (P06756 31-992 limits assumed): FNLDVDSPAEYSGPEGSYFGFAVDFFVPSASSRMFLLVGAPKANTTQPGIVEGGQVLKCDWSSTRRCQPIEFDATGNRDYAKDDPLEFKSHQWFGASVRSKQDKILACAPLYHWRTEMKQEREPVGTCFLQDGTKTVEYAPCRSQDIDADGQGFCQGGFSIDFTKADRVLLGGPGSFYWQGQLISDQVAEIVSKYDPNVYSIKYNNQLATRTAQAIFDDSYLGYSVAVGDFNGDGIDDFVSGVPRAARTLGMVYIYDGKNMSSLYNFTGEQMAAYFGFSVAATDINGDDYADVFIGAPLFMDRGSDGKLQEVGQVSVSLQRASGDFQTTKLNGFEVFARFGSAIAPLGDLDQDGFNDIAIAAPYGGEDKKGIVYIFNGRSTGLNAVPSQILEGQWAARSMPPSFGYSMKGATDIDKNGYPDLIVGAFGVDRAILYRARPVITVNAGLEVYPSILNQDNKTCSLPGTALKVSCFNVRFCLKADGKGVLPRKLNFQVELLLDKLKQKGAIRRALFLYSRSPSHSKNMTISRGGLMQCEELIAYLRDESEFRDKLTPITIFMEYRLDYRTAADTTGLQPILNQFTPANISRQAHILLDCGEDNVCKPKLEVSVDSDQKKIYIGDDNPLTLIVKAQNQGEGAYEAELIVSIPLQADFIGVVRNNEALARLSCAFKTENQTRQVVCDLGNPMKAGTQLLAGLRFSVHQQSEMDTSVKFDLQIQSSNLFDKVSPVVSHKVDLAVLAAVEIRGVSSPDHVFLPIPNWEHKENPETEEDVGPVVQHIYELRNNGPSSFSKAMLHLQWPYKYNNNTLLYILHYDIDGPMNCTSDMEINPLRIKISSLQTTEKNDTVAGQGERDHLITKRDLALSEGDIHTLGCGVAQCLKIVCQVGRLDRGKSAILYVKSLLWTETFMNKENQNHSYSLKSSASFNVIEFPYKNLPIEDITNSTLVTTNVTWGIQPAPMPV
integrin αvβ3, sequence (P05106 27-718 limits assumed): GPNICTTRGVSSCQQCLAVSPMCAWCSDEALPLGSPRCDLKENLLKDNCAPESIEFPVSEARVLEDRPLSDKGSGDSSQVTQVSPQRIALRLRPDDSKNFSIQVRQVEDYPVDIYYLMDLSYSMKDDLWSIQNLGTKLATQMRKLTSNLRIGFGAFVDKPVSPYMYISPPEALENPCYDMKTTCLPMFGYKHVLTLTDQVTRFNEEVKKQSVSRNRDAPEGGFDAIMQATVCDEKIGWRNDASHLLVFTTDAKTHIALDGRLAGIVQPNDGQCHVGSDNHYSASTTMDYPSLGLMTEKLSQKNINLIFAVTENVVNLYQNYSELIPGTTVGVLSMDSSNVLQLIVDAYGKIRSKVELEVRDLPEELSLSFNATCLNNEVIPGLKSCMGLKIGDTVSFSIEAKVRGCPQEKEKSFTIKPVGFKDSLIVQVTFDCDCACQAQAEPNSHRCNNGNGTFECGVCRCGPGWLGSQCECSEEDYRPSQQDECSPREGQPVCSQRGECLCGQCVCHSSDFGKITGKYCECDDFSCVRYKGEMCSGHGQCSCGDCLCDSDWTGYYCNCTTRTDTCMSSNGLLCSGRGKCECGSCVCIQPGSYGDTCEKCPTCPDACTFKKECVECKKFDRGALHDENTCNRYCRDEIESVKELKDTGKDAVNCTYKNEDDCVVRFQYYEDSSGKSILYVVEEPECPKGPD
Description: as §1, §2

in vivo = test: in vivo; design: species or system mice; details: M-NSG, mouse, iv, 100 uCi, total radioactivity
Description: For example, labeling TM4 with radioactive ^68Ga: An aqueous solution of TM4 (DOTA-Asn-Asp-Val-Ile-Asn-OH) (20 μg) was added to the prepared ^68GaCl3 solution, and the pH was adjusted to 3-5 with aqueous sodium acetate and acetic acid. This system was reacted at 70-95° C. for 15 min, and then purified after the reaction was completed to obtain a labeled solution of ^68Ga-DOTA-Asn-Asp-Val-Ile-Asn-OH (^68Ga-TM4).
All compounds were labeled with ^68Ga in the same way as described above.
Approximately 100 μCi of ^68Ga injection was injected into the tail vein of M-NSG mice inoculated with H1975. […] Table 6 was obtained by image post-processing.

Compound	affinity constant (KD) to integrin α5β1, in words (integrin α5β1)	Kd (integrin α5β1) [nM]	affinity constant (KD) to integrin αvβ3, in words (integrin αvβ3)	Kd (integrin αvβ3) [nM]	tissue uptake at 1 h (in vivo; % ID/g Bone) [%ID/g]	tissue uptake at 1 h (in vivo; % ID/g Brain) [%ID/g]	tissue uptake at 1 h (in vivo; % ID/g Heart) [%ID/g]	tissue uptake at 1 h (in vivo; % ID/g Intestine) [%ID/g]	tissue uptake at 1 h (in vivo; % ID/g Kidney) [%ID/g]	tissue uptake at 1 h (in vivo; % ID/g Liver) [%ID/g]	tissue uptake at 1 h (in vivo; % ID/g Lung) [%ID/g]	tissue uptake at 1 h (in vivo; % ID/g Muscle) [%ID/g]	tissue uptake at 1 h (in vivo; % ID/g Tumor) [%ID/g]
CC[C@H](C)[C@H](NC(=O)[C@@H](NC(=O)[C@H](CC(=O)O)NC(=O)[C@H](CC(N)=O)NC(=O)CCOCCOCCOCCOCCNC(=O)CN1CCN(CC(=O)O)CCN(CC(=O)O)CCN(CC(=O)O)CC1)C(C)C)C(=O)N[C@@H](CC(N)=O)C(=O)O [TM5] ({DOTA-PEG4}-NDVIN-OH)	better than nM level	2.77	–	–	–	–	–	–	–	–	–	–	–
CC[C@H](C)[C@H](NC(=O)[C@@H](NC(=O)[C@H](CC(=O)O)NC(=O)[C@H](CC(N)=O)NC(=O)CN1CCN(CC(=O)O)CCN(CC(=O)O)CCN(CC(=O)O)CC1)C(C)C)C(=O)N[C@@H](CC(N)=O)C(=O)O [TM4, DOTA-Asn-Asp-Val-Ile-Asn-OH] ({DOTA}-NDVIN-OH)	–	16	nM level	2.88	–	–	–	–	–	–	–	–	–
CC[C@H](C)C(NC(=O)[C@@H](NC(=O)[C@H](CC(=O)O)NC(=O)[C@H](CC(N)=O)NC(=O)[C@H](CC(=O)O)NC(=O)CNC(=O)[C@H](CCCNC(=N)N)NC(=O)COCCNC(=O)CN1CCN(CC(=O)O)CCN(CC(=O)O)CCN(CC(=O)O)CC1)C(C)C)C(=O)N[C@@H](CC(N)=O)C(=O)O (stereo partly drawn) [TM15] ({DOTA-AEA}-RGDNDV[ξIle]N-OH)	better than nM level	0.992	nM level	1.69	–	–	–	–	–	–	–	–	–
CC[C@H](C)[C@H](NC(=O)[C@@H](NC(=O)[C@H](CC(=O)O)NC(=O)[C@H](CC(N)=O)NC(=O)CN1CCN(CC(=O)O)CCN(CC(=O)O)CCN(CC(=O)O)CC1)C(C)C)C(=O)N[C@@H](CC(N)=O)C(=O)O [^68Ga-TM4, ^68Ga-DOTA-Asn-Asp-Val-Ile-Asn-OH, metal not drawn] ({DOTA}-NDVIN-OH)	–	–	–	–	0.3	0.5	0.96	0.56	4.8	0.79	0.47	0.36	1.4
CC[C@H](C)C(NC(=O)[C@@H](NC(=O)[C@H](CC(=O)O)NC(=O)[C@H](CC(N)=O)NC(=O)COCCOCCNC(=O)CN1CCN(CC(=O)O)CCN(CC(=O)O)CCN(CC(=O)O)CC1)C(C)C)C(=O)N[C@@H](CC(N)=O)C(=O)O (stereo partly drawn) [TM14] ({DOTA-AEEA}-NDV[ξIle]N-OH)	better than nM level	9.43	–	36.7	–	–	–	–	–	–	–	–	–
CC[C@H](C)[C@H](NC(=O)[C@@H](NC(=O)[C@H](CC(=O)O)NC(=O)[C@H](CC(N)=O)NC(=O)CCOCCOCCOCCOCCNC(=O)CN1CCN(CC(=O)O)CCN(CC(=O)O)CCN(CC(=O)O)CC1)C(C)C)C(=O)N[C@@H](CC(N)=O)C(=O)O [^68Ga-TM5, metal not drawn] ({DOTA-PEG4}-NDVIN-OH)	–	–	–	–	0.22	0.25	0.45	0.57	7.4	0.5	0.24	0.21	1.1
